What was measured:
[1] = system: Purkinje-Fasern aus Hundeherzen; assay: Electrophysiological studies on Purkinje fibres from dog hearts (Vmax); assay type: cell-based, Hund; details: for C20 Vmax / IC20: Purkinje-Fasern aus Hundeherzen; for Prematurity Faktor Vmax: Vorzeitigkeitsindex, activity on premature extrasystoles; for Rate-Faktor von Vmax: specifically stronger activity at higher frequencies; for IC20: read-out: C20 Vmax
From the text: Die antiarrhythmische Wirksamkeit der erfindungsgemäßen Verbindungen wurde sowohl anhand von elektrophysiologischen Studien an Purkinje-Fasern aus Hundeherzen sowie mit Hilfe von Ouabaininduzierten ventrikulären Tachykardien bei Hunden bestimmt. […]
Als zusätzliches Kriterium wurde der Vorzeitigkeitsindex (Prematurity-Faktor) bestimmt, der die erwünschte Wirksamkeit der erfindungsgemäßen Verbindungen bei vorzeitigen Extrasystolen charakterisiert.

[2] = system: Meerschweinchen-Papillarmuskel; assay: Effect on contraction force of the heart, guinea pig papillary muscle; assay type: cell-based; details: contraction force (negative inotropy); for IC20: read-out: C20 CF
From the text: Die Wirkung auf die Kontraktionskraft des Herzens wurde am Meerschweinchen-Papillarmuskel untersucht. Hämodynamische Studien wurden bei gesunden, wie auch akut infarzierten Hunden durchgeführt.

Row | SMILES | C20 Vmax [1] | Prematurity Faktor Vmax [1] | Rate-Faktor von Vmax [1] | C20 CF [2] | IC20 [1] | IC20 [2]
1 | CCCNCC(O)COc1ccccc1C(=O)CCc1ccccc1 (stereo not drawn) [A, Propafenon, reference compound] | 3,7 µM | 0,97 | 1,08 | 5,3 µM |  | 
2 | CCCNCC(O)COc1cccc(CCC(=O)c2ccc(OC)cc2)c1.Cl (stereo not drawn) [Beispiel 7, 1-(4-Methoxyphenyl)-3-[3′-(2-hydroxy-3-n-propylaminopropoxy)-phenyl]-1-propanon-hydrochlorid] |  | 0,90 | 1,21 |  | 2.9 µM | 6 µM
3 | CCC(C)(C)NCC(O)COc1cccc(CCC(=O)c2cc(OC)c(OC)c(OC)c2)c1.Cl (stereo not drawn) [Beispiel 8, 1-(3,4,5-Trimethoxyphenyl)-3-[3′-(2-hydroxy-3-tert.-pentylaminopropoxy)-phenyl]-1-propanon-hydrochlorid] |  |  | 5,00 |  | 1.6 µM | 3 µM
4 | COc1cc(C(=O)CCc2cccc(OCC(O)CNC(C)C)c2)cc(OC)c1OC.Cl (stereo not drawn) [Beispiel 9, 1-(3,4,5-Trimethoxyphenyl)-3-[3′-(2-hydroxy-3-isopropylaminopropoxy)-phenyl]-1-propanon-hydrochlorid] |  | 1,01 | 1,26 |  | 9.1 µM | 15 µM
5 | COc1cc(C(=O)CCc2cccc(OCC(O)CNC(C)(C)C)c2)cc(OC)c1OC.Cl (stereo not drawn) [Beispiel 10, 1-(3,4,5-Trimethoxyphenyl)-3-[3′-(2-hydroxy-3-tert.-butylaminopropoxy)-phenyl]-1-propanon-hydrochlorid] |  | 0,99 | 1,17 |  | 2.6 µM | 5 µM
6 | CCC(C)(C)NCC(O)COc1cccc(CCC(=O)c2c(C)cc(C)cc2C)c1.Cl (stereo not drawn) [Beispiel 11, 1-(2,4,6-Trimethylphenyl)-3-[3′-(2-hydroxy-3-tert.-pentylaminopropoxy)-phenyl]-1-propanon-hydrochlorid] |  | 0,95 | 1,15 |  | 3.3 µM | 10 µM
7 | Cc1cc(C)c(C(=O)CCc2cccc(OCC(O)CNC(C)(C)C)c2)c(C)c1.Cl (stereo not drawn) [Beispiel 14, 1-(2,4,6-Trimethylphenyl)-3-[3′-(2-hydroxy-3-tert.-butylaminopropoxy)-phenyl]-1-propanon-hydrochlorid] |  | 0,95 | 1,47 |  | 11.9 µM | 20 µM
8 | Cc1cc(C)c(C(=O)CCc2cccc(OCC(O)CNC(C)C)c2)c(C)c1.Cc1cc(C)c(C(=O)CCc2cccc(OCC(O)CNC(C)C)c2)c(C)c1.O=C(O)C(=O)O (stereo not drawn) [Beispiel 15, 1-(2,4,6-Trimethylphenyl)-3-[3′-(2-hydroxy-3-isopropylaminopropoxy)-phenyl]-1-propanon-semi-oxalat] | 1,0 µM | 0,94 | 1,09 | 7,0 µM |  | 
9 | Cc1cc(C)c(CC(=O)Cc2cccc(OCC(O)CNC(C)(C)C)c2)c(C)c1.Cl (stereo not drawn) [Beispiel 17, 1-(2,4,6-Trimethylphenyl)-3-[3′-(2-hydroxy-3-tert.-butylaminopropoxy)-phenyl]-propanon-hydrochlorid] |  | 0,99 | 1,12 |  | 1.7 µM | 15 µM
10 | CCCNCC(O)COc1cc(CCC(=O)c2ccc(OC)c(OC)c2)ccc1OC.Cl (stereo not drawn) [Beispiel 22, 1-(3,4-Dimethoxyphenyl)-3-[3′-(2-hydroxy-3-n-propylaminopropoxy)-4′-methoxyphenyl]-1-propanon-hydrochlorid] |  | 0,99 | 0,97 |  | 3.2 µM | 7 µM
11 | COc1ccc(C(=O)CCc2ccc(OC)c(OCC(O)CNC(C)C)c2)cc1OC.Cl (stereo not drawn) [Beispiel 23, 1-(3,4-Dimethoxyphenyl)-3-[3′-(2-hydroxy-3-isopropylaminopropoxy)-4′-methoxyphenyl]-1-propanon-hydrochlorid] |  | 1,05 | 5,00 |  | 2.2 µM | 6 µM
12 | COc1ccc(C(=O)CCc2ccc(OC)c(OCC(O)CNC(C)(C)C)c2)cc1OC.Cl (stereo not drawn) [Beispiel 25, 1-(3,4-Dimethoxyphenyl)-3-[3′-(2-hydroxy-3-tert.-butylaminopropoxy)-4′-methoxyphenyl]-1-propanon-hydrochlorid] |  | 1,01 | 1,21 |  | 2.4 µM | 6 µM
13 | CCC(C)(C)NCC(O)COc1cc(CCC(=O)c2ccc(OC)c(OC)c2)ccc1OC.Cl (stereo not drawn) [Beispiel 27, 1-(3,4-Dimethoxyphenyl)-3-[3′-(2-hydroxy-3-tert.-pentylaminopropoxy)-4′-methoxyphenyl]-1-propanon-hydrochlorid] |  | 1,05 | 1,25 |  | 3.5 µM | 15 µM
14 | COc1ccc(CCC(=O)c2cc(OC)c(OC)c(OC)c2)cc1OCC(O)CNC(C)C.Cl (stereo not drawn) [Beispiel 30, 1-(3,4,5-Trimethoxyphenyl)-3-[3′-(2-hydroxy-3-isopropylaminopropoxy)-4′-methoxyphenyl]-1-propanon-hydrochlorid] |  | 1,01 | 1,13 |  | 2.5 µM | 5 µM
15 | COc1ccc(CCC(=O)c2cc(OC)c(OC)c(OC)c2)cc1OCC(O)CNC1CCCCC1.Cl (stereo not drawn) [Beispiel 32, 1-(3,4,5-Trimethoxyphenyl)-3-[3′-(2-hydroxy-3-cyclohexylaminopropoxy)-4′-methoxyphenyl]-1-propanon-hydrochlorid] |  | 1,05 | 1,25 |  | 1.1 µM | 9 µM
16 | COc1ccc(CCC(=O)c2ccccc2OC)cc1OCC(O)CNC(C)(C)C.Cl (stereo not drawn) [Beispiel 35, 1-(2-Methoxyphenyl)-3-[3′-(2-hydroxy-3-tert.-butylaminopropoxy)-4′-methoxyphenyl]-1-propanon-hydrochlorid] |  | 0,91 |  |  | 3 µM | 10 µM
17 | CCCNCC(O)COc1cc(CCC(=O)c2ccc(C)cc2)ccc1OC.Cl (stereo not drawn) [Beispiel 37, 1-(4-Methylphenyl)-3-[3′-(2-hydroxy-3-n-propylaminopropoxy)-4′-methoxyphenyl]-1-propanon-hydrochlorid] |  | 0,94 | 1,22 |  | 2.6 µM | 5 µM
18 | COc1ccc(CCC(=O)c2ccc(C)cc2)cc1OCC(O)CNC(C)(C)C.Cl (stereo not drawn) [Beispiel 39, 1-(4-Methylphenyl)-3-[3′-(2-hydroxy-3-tert.-butylaminopropoxy)-4′-methoxyphenyl]-1-propanon-hydrochlorid] |  | 0,94 | 1,51 |  | 1.2 µM | 4 µM
19 | COc1ccc(CCC(=O)c2ccc(C)cc2)cc1OCC(O)CN1CCCCC1.Cl (stereo not drawn) [Beispiel 40, 1-(4-Methylphenyl)-3-[3′-(2-hydroxy-3-piperidinopropoxy)-4′-methoxyphenyl]-1-propanon-hydrochlorid] |  | 0,94 | 1,33 |  | 1.3 µM | 5 µM
20 | CCCNCC(O)COc1cc(CCC(=O)c2c(C)cc(C)cc2C)ccc1OC.O=C(O)C(=O)O (stereo not drawn) [Beispiel 44, 1-(2,4,6-Trimethylphenyl)-3-[3′-(2-hydroxy-3-n-propylaminopropoxy)-4′-methoxyphenyl]-1-propanon-oxalat] |  | 1,10 | 1,03 |  | 1.7 µM | 14 µM
21 | CCC(C)(C)NCC(O)COc1cc(CCC(=O)c2ccc3ccccc3c2)ccc1OC.Cl (stereo not drawn) [Beispiel 47, 1-(2-Naphthyl)-3-[3′-(2-hydroxy-3-tert.-pentylaminopropoxy)-4′-methoxyphenyl]-1-propanon-hydrochlorid] |  | 1,10 | 1,22 |  | 6.1 µM | 17 µM
22 | CCCNCC(O)COc1cc(CCC(=O)c2ccc3ccccc3c2)ccc1OC.Cl (stereo not drawn) [Beispiel 48, 1-(2-Napthyl)-3-[3′-(2-hydroxy-3-n-propylaminopropoxy)-4′-methoxyphenyl]-1-propanon-hydrochlorid] | 1,1 µM | 0,90 | 1,43 | 9,0 µM |  | 
23 | COc1ccc(CCC(=O)c2ccc3ccccc3c2)cc1OCC(O)CNC(C)C.Cl (stereo not drawn) [Beispiel 49, 1-(2-Naphthyl)-3-[3′-(2-hydroxy-3-isopropylaminopropoxy)-4′-methoxyphenyl]-1-propanon-hydrochlorid] |  | 0,50 | 4,00 |  | 12.1 µM | 14 µM

— patent publication EP0297435A2, “Aminopropanol derivatives of 3-(3'-hydroxyphenyl)-1-propanone, process for their preparation and medicines containing these compounds” (Helopharm W. Petrik GmbH & Co.KG., priority 1987, dated 1989)
